Measurements taken from the NIST ThermoML archive (doi:10.1016/j.jct.2010.03.002).
± gives the expanded uncertainty stated by the source.

Experiment: xn = mol fraction of the nth substance listed
Settings: 101 kPa, Liquid; for viscosity: Capillary tube (Ostwald / Ubbelohde) method; for mass density: Vibrating tube method

CCCCCCn1cc[n+](C)c1.[Br-] [3-hexyl-1-methyl-1H-imidazolium bromide] + O
Settings	mass density, 293.15 K [kg/m3]	mass density, 303.15 K [kg/m3]	mass density, 313.15 K [kg/m3]	mass density, 323.15 K [kg/m3]	mass density, 333.15 K [kg/m3]	viscosity, 293.15 K [mPa·s]	viscosity, 303.15 K [mPa·s]	viscosity, 313.15 K [mPa·s]	viscosity, 323.15 K [mPa·s]	viscosity, 333.15 K [mPa·s]
x2 = 0	1227.4 ± 1.7	1220.1 ± 1.7	1213.3 ± 1.7	1205.7 ± 1.7	1198.6 ± 1.6	6936 ± 750	2239 ± 200	851.65 ± 56	512.14 ± 27	350.69 ± 16
x2 = 0.1225	1223.4 ± 1.4	1216.1 ± 1.4	1209.3 ± 1.3	1201.8 ± 1.3	1194.6 ± 1.3	3519 ± 330	1255 ± 94	503.66 ± 27	302.69 ± 13	201.69 ± 6.7
x2 = 0.2196	1220.4 ± 1.1	1213.2 ± 1.1	1206.4 ± 1.1	1198.8 ± 1.1	1191.5 ± 1.1	1578 ± 120	695.45 ± 42	320.14 ± 14	180.56 ± 5.7	115.66 ± 2.6
x2 = 0.2978	1217.9 ± 1	1210.8 ± 1	1204 ± 0.9	1196.2 ± 0.9	1189 ± 0.9	776.62 ± 48	395.49 ± 19	194.1 ± 6.6	117.64 ± 2.7	77.41 ± 1.2
x2 = 0.348	1216.3 ± 0.9	1209 ± 0.9	1202.2 ± 0.8	1194.6 ± 0.8	1187.4 ± 0.8	507.8 ± 27	265.62 ± 11	143.5 ± 3.9	89.65 ± 1.6	57.52 ± 0.74
x2 = 0.4166	1213.4 ± 0.7	1206.2 ± 0.7	1199.5 ± 0.7	1192 ± 0.7	1184.8 ± 0.7	313.52 ± 13	168.31 ± 5.1	97.98 ± 1.9	60.85 ± 0.76	40.03 ± 0.5
x2 = 0.504	1208.7 ± 0.6	1201.6 ± 0.6	1194.9 ± 0.6	1187.5 ± 0.6	1180.3 ± 0.6	173.73 ± 5.2	98.93 ± 2	60.18 ± 0.75	38.59 ± 0.46	26.69 ± 0.31
x2 = 0.5701	1203.9 ± 0.5	1196.8 ± 0.5	1190.1 ± 0.5	1182.7 ± 0.5	1175.8 ± 0.5	111.42 ± 2.3	65.77 ± 0.89	41.24 ± 0.49	27.69 ± 0.3	19.36 ± 0.21
x2 = 0.6405	1196.9 ± 0.4	1189.9 ± 0.4	1183.3 ± 0.4	1176 ± 0.4	1169 ± 0.4	70.83 ± 0.91	43.45 ± 0.53	28.14 ± 0.31	19.39 ± 0.19	14.63 ± 0.15
x2 = 0.7285	1184.3 ± 0.3	1177.3 ± 0.3	1170.7 ± 0.3	1163.5 ± 0.3	1156.5 ± 0.3	36.4 ± 0.45	22.54 ± 0.26	15.13 ± 0.16	10.75 ± 0.1	7.929 ± 0.067
x2 = 0.816	1163.7 ± 0.2	1156.9 ± 0.2	1150.1 ± 0.2	1142.9 ± 0.2	1136.3 ± 0.2	18.13 ± 0.2	12.1 ± 0.13	8.492 ± 0.076	–	4.762 ± 0.058
x2 = 0.9048	1123.6 ± 0.2	1117.3 ± 0.2	1110.7 ± 0.2	1104.4 ± 0.2	1097.6 ± 0.2	6.655 ± 0.059	4.764 ± 0.047	3.519 ± 0.033	2.744 ± 0.025	2.184 ± 0.02
x2 = 0.9241	1109.4 ± 0.2	1103.6 ± 0.2	1097 ± 0.2	1090.9 ± 0.1	1084.2 ± 0.1	4.951 ± 0.046	3.619 ± 0.035	2.764 ± 0.025	2.165 ± 0.019	1.733 ± 0.016
x2 = 0.944	1091.2 ± 0.1	1085.4 ± 0.1	1079.5 ± 0.1	1073.6 ± 0.1	1067.2 ± 0.1	3.48 ± 0.032	2.622 ± 0.023	–	1.6 ± 0.016	1.301 ± 0.012
x2 = 0.9613	1070.9 ± 0.1	1065.7 ± 0.1	1060.4 ± 0.1	1054.7 ± 0.1	1048.5 ± 0.1	2.438 ± 0.023	1.86 ± 0.017	1.469 ± 0.012	–	0.982 ± 0.013
x2 = 0.9899	1022.6 ± 0.1	1019.2 ± 0.1	1015.1 ± 0.1	1010.1 ± 0.1	1004.2 ± 0.1	1.342 ± 0.014	1.047 ± 0.01	0.846 ± 0.008	0.695 ± 0.006	0.588 ± 0.006
